Results from ChEMBL document CHEMBL1201862, “PubChem BioAssay data set” (2004).
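Interpolation was linear, between the two tested concentrations surrounding the appropriate level; five concentrations were tested over 48 hours in 96-well plates. At the GI50, growth is halved.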 Active and inactive are the calls of the source. No stated cut-off is given here; in the data, active = GI50 up to about 1.1 µM and inactive = higher.

What was measured:
Experiment in all cases: DTP human tumour cell line panel, 48 h
[1] = system: A498
[2] = system: A549
[3] = system: EKVX
[4] = system: HOP-62
[5] = system: M14
[6] = system: MCF7
[7] = system: MDA-N
[8] = system: MOLT-4
[9] = system: NCI/ADR-RES
[10] = system: OVCAR-4
[11] = system: SF-539
[12] = system: SK-MEL-2
[13] = system: SK-MEL-5
[14] = system: SK-OV-3
[15] = system: SN12C
[16] = system: SNB-75
[17] = system: U-251
[18] = system: UACC-257
[19] = system: UACC-62
[20] = system: UO-31

Row | Compound | GI50 [1] | GI50 [2] | GI50 [3] | GI50 [4] | GI50 [5] | GI50 [6] | GI50 [7] | GI50 [8] | GI50 [9] | GI50 [10] | GI50 [11] | GI50 [12] | GI50 [13] | GI50 [14] | GI50 [15] | GI50 [16] | GI50 [17] | GI50 [18] | GI50 [19] | GI50 [20]
1 | CC(=O)NC1=C(OS(=O)(=O)c2ccc(C)cc2)CN(C)C1=O | 4.25 µM (inactive) | 3.5 µM (inactive) | 4.84 µM (inactive) | 2.88 µM (inactive) | 5.04 µM (inactive) | 2.89 µM (inactive) | 4.56 µM (inactive) | 3.25 µM (inactive) | 3.91 µM (inactive) | 6.27 µM (inactive) | 2.06 µM (inactive) | 2.55 µM (inactive) | 4.11 µM (inactive) | 7.57 µM (inactive) | 4.37 µM (inactive) | 4.31 µM (inactive) | 2.7 µM (inactive) | 2.49 µM (inactive) | 6.79 µM (inactive) | 3.44 µM (inactive)
2 | O=[N+]([O-])/C=C/c1c(Cl)cccc1Cl | 16.4 µM (inactive) | 8.63 µM (inactive) | 5.65 µM (inactive) | 6.38 µM (inactive) | 1.48 µM (inactive) | 1.64 µM (inactive) | 2.89 µM (inactive) | 1.07 µM (active) | 1.96 µM (inactive) | 3.56 µM (inactive) | 2.37 µM (inactive) | 5.94 µM (inactive) | 3.13 µM (inactive) | 20.8 µM (inactive) | 1.53 µM (inactive) | 18 µM (inactive) | 2.61 µM (inactive) | 3.09 µM (inactive) | 2.77 µM (inactive) | 3.76 µM (inactive)
3 | O=C1c2ccccc2C(=O)N1c1ccc(Cc2ccc(N3C(=O)c4ccccc4C3=O)cc2)cc1 | > 100 µM (inactive) | > 100 µM (inactive) | > 100 µM (inactive) | 49.9 µM (inactive) | > 100 µM (inactive) | > 100 µM (inactive) | > 100 µM (inactive) | 3.02 µM (inactive) | > 100 µM (inactive) | > 100 µM (inactive) | > 80.9 µM (inactive) | > 100 µM (inactive) | > 100 µM (inactive) | > 100 µM (inactive) | > 100 µM (inactive) | > 84.5 µM (inactive) | > 100 µM (inactive) | > 100 µM (inactive) | > 100 µM (inactive) | > 100 µM (inactive)
4 | C=C1c2nc3ccccc3n2C=C(c2ccc(OC)cc2)N1c1ccc(OCCN2CCCCC2)cc1 | 35.7 µM (inactive) | 17.6 µM (inactive) | 40.9 µM (inactive) | 35.6 µM (inactive) | 14.2 µM (inactive) | 9.16 µM (inactive) | 19.7 µM (inactive) | 2.58 µM (inactive) | 4.73 µM (inactive) | 11.6 µM (inactive) | 20.2 µM (inactive) | 22.1 µM (inactive) | 7.45 µM (inactive) | 49.1 µM (inactive) | 27.1 µM (inactive) | 50.5 µM (inactive) | 7.59 µM (inactive) | 1.49 µM (inactive) | 20.7 µM (inactive) | 8.22 µM (inactive)
5 | CC(C)NC(=O)OCc1c(COC(=O)NC(C)C)n(C)c2c1ccc1sccc12 | 16.3 µM (inactive) | > 36.6 µM (inactive) | 11.2 µM (inactive) | 20.9 µM (inactive) | 14.1 µM (inactive) | 13.5 µM (inactive) | 17.4 µM (inactive) | 10.3 µM (inactive) | > 25.4 µM (inactive) | 12.8 µM (inactive) | 12.4 µM (inactive) | 16.4 µM (inactive) | 9.29 µM (inactive) | 24.9 µM (inactive) | 15.9 µM (inactive) | 14.4 µM (inactive) | 20.7 µM (inactive) | 15.8 µM (inactive) | 10.2 µM (inactive) | 9.14 µM (inactive)
6 | Cc1ccc(NC=O)c(-c2c(N)[nH]c(=S)[nH]c2=O)c1 | > 100 µM (inactive) | > 100 µM (inactive) | > 100 µM (inactive) | > 100 µM (inactive) | > 100 µM (inactive) | > 100 µM (inactive) | > 100 µM (inactive) | > 100 µM (inactive) | > 100 µM (inactive) | – | > 100 µM (inactive) | > 100 µM (inactive) | > 100 µM (inactive) | 12.3 µM (inactive) | > 100 µM (inactive) | > 100 µM (inactive) | – | > 100 µM (inactive) | > 100 µM (inactive) | > 100 µM (inactive)
7 | N#Cc1ccccc1NC(=O)C(=O)c1c(O)c2ccccc2oc1=O | > 100 µM (inactive) | > 100 µM (inactive) | > 100 µM (inactive) | > 100 µM (inactive) | > 100 µM (inactive) | > 100 µM (inactive) | > 100 µM (inactive) | – | > 100 µM (inactive) | > 100 µM (inactive) | > 100 µM (inactive) | > 100 µM (inactive) | > 100 µM (inactive) | > 100 µM (inactive) | > 100 µM (inactive) | > 100 µM (inactive) | > 100 µM (inactive) | > 100 µM (inactive) | > 100 µM (inactive) | > 100 µM (inactive)
8 | COc1ccc(C2SCC(=O)N2NC(=O)c2ccc(NC(C)=O)cc2)c(OC)c1 (stereo unspecified) | > 100 µM (inactive) | > 100 µM (inactive) | > 100 µM (inactive) | > 100 µM (inactive) | 69.8 µM (inactive) | > 100 µM (inactive) | > 100 µM (inactive) | > 100 µM (inactive) | > 100 µM (inactive) | > 100 µM (inactive) | > 100 µM (inactive) | > 100 µM (inactive) | > 100 µM (inactive) | > 100 µM (inactive) | > 100 µM (inactive) | > 100 µM (inactive) | 33.6 µM (inactive) | > 100 µM (inactive) | > 100 µM (inactive) | > 100 µM (inactive)
9 | CC1=CC(=O)/C(=C/NC(=S)c2ccncc2)C(=O)O1 | > 100 µM (inactive) | > 100 µM (inactive) | 46.7 µM (inactive) | > 100 µM (inactive) | > 100 µM (inactive) | > 100 µM (inactive) | > 100 µM (inactive) | > 100 µM (inactive) | > 100 µM (inactive) | > 100 µM (inactive) | > 100 µM (inactive) | > 100 µM (inactive) | > 100 µM (inactive) | > 100 µM (inactive) | > 100 µM (inactive) | 61.9 µM (inactive) | > 100 µM (inactive) | > 100 µM (inactive) | > 100 µM (inactive) | > 100 µM (inactive)
10 | CSC(=S)OC1CC(n2cnc3c(NC(=O)c4ccccc4)ncnc32)OC1CO[Si](C)(C)C(C)(C)C (stereo unspecified) | 19.1 µM (inactive) | 12.4 µM (inactive) | 25.1 µM (inactive) | 28.6 µM (inactive) | 13.9 µM (inactive) | 8.05 µM (inactive) | 7.87 µM (inactive) | 2.03 µM (inactive) | 9.02 µM (inactive) | 7.57 µM (inactive) | 36.3 µM (inactive) | 16.2 µM (inactive) | 5.45 µM (inactive) | 36.6 µM (inactive) | 14.4 µM (inactive) | 34.1 µM (inactive) | 7.41 µM (inactive) | 14.7 µM (inactive) | 14.1 µM (inactive) | 4.4 µM (inactive)
11 | C/C(=C\COc1ccc2ccc(=O)oc2c1)CCC(=O)C(C)(C)O | 24 µM (inactive) | 26.7 µM (inactive) | 34 µM (inactive) | 44 µM (inactive) | 22 µM (inactive) | 19.1 µM (inactive) | 25.6 µM (inactive) | 22.9 µM (inactive) | 27.9 µM (inactive) | 51.9 µM (inactive) | 21 µM (inactive) | 39.1 µM (inactive) | 16.5 µM (inactive) | 36 µM (inactive) | 24.2 µM (inactive) | 68.1 µM (inactive) | 19.8 µM (inactive) | 28 µM (inactive) | 18.3 µM (inactive) | 28.4 µM (inactive)
12 | O=C1C(c2ccc([N+](=O)[O-])cc2)=C(Cl)C(=O)c2c(O)cccc21 | 25.3 µM (inactive) | 97.7 µM (inactive) | 20.5 µM (inactive) | 34.4 µM (inactive) | 21 µM (inactive) | 18.8 µM (inactive) | 20.2 µM (inactive) | 3.66 µM (inactive) | 28.4 µM (inactive) | 17.3 µM (inactive) | 20.2 µM (inactive) | 17.9 µM (inactive) | 23.4 µM (inactive) | 50.8 µM (inactive) | 22.3 µM (inactive) | 35.3 µM (inactive) | 17.9 µM (inactive) | 18.4 µM (inactive) | 19.7 µM (inactive) | 13.5 µM (inactive)
13 | O=S(=O)(O)c1cc(/N=[N+](\[O-])c2cc(S(=O)(=O)O)c3ccccc3c2)cc2ccccc12 | > 100 µM (inactive) | > 100 µM (inactive) | 39.4 µM (inactive) | 48 µM (inactive) | 35.7 µM (inactive) | 30.1 µM (inactive) | 20 µM (inactive) | – | > 100 µM (inactive) | 20.5 µM (inactive) | 16.8 µM (inactive) | 24.7 µM (inactive) | 17.9 µM (inactive) | > 100 µM (inactive) | 23.6 µM (inactive) | 16.3 µM (inactive) | 60.4 µM (inactive) | 51.1 µM (inactive) | > 100 µM (inactive) | 20.9 µM (inactive)
14 | Cc1ccc2c(c1)[n+]([O-])c(N)n[n+]2[O-] | 75.3 µM (inactive) | > 100 µM (inactive) | > 100 µM (inactive) | > 100 µM (inactive) | > 100 µM (inactive) | > 100 µM (inactive) | > 100 µM (inactive) | > 100 µM (inactive) | > 100 µM (inactive) | > 100 µM (inactive) | > 100 µM (inactive) | > 100 µM (inactive) | 37.6 µM (inactive) | > 100 µM (inactive) | > 100 µM (inactive) | 58.1 µM (inactive) | > 100 µM (inactive) | > 100 µM (inactive) | > 10 µM (inactive) | > 100 µM (inactive)
